Source: PubChem BioAssay AID1033 (Sanford-Burnham Center for Chemical Genomics, 2008)
Calls of active or inactive are those of the source. The rule behind the calls is not given here.

target: Chaperone protein DnaK (Escherichia coli (strain K12)) (UniProt P0A6Y8); experiment: E. coli DnaK SBD ligand binding – biophysical, NMR, chaperone (AID 1033); details: Purified DnaK SBD
Sequence (P0A6Y8 whole entry, looked up): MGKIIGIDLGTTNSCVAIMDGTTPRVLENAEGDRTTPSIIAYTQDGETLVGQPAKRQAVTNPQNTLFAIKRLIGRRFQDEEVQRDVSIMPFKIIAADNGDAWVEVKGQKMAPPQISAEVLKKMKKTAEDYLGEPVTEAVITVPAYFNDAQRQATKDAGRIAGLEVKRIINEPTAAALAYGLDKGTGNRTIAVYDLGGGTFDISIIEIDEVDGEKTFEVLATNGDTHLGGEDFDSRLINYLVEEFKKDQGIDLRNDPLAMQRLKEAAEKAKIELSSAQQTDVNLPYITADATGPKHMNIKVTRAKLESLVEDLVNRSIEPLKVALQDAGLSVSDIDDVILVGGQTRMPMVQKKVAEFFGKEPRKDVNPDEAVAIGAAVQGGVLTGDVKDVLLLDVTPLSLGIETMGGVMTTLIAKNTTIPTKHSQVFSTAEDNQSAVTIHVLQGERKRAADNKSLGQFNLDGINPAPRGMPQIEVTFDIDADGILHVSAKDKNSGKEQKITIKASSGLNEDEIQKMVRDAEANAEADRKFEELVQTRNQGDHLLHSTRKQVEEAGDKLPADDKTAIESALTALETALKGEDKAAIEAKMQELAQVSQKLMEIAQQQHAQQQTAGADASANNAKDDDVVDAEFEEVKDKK

| SMILES | Kd |
| --- | --- |
| N#Cc1ccccc1CSc1ccccn1 | > 4 mM (inactive) |
| O=C(Oc1ccc2c(c1)CCC2)N1CCOCC1 | > 4 mM (inactive) |
| CN(C)N1C(=O)C2C3C=CC(O3)C2C1=O (centres undefined) | > 4 mM (inactive) |
| Cc1cc(C)c(C(N)=O)c(=S)[nH]1 | > 4 mM (inactive) |
| NC(=O)COc1cccc2cccnc12 | > 4 mM (inactive) |
| NS(=O)(=O)c1ccc(F)cc1 | > 4 mM (inactive) |
| CSc1nnnn1-c1cccc(O)c1 | > 4 mM (inactive) |
| COC(=O)c1nc(-c2ccccc2)oc1N(C)C | > 4 mM (inactive) |
| Nc1nc(NCc2ccco2)nn1-c1ccccc1 | > 4 mM (inactive) |
| CC1CCN(S(=O)(=O)N(C)C)CC1 | > 4 mM (inactive) |
| CC(=O)O[C@@H]1CC2C(C)(C)[C@H](O)C[C@H](O)[C@]2(C)C2CC[C@@]3(C)C(=CC(=O)O[C@H]3c3ccoc3)[C@@]21C (some centres undefined) | > 4 mM (inactive) |
| NCc1c[nH]c2ccccc12 | > 4 mM (inactive) |
| CN1C(=O)/C(=C/c2ccccc2O)NC1=S | > 4 mM (inactive) |
| Cc1nc2ccc(NC(=O)N3CCSCC3)cc2s1 | > 4 mM (inactive) |
| NC(=O)NCCCC(N)C(=O)O (centres undefined) | > 4 mM (inactive) |
| NC(CCC(=O)Nc1ccc([N+](=O)[O-])cc1)C(=O)O (centres undefined) | > 4 mM (inactive) |
| CC1(C)Cc2cccc(C(=O)O)c2O1 | > 4 mM (inactive) |
| N/N=C/c1cccnc1 | > 4 mM (inactive) |
| CC1(C)C(=O)C=C[C@@]2(C)C1C[C@@H](O)[C@]1(C)C2CC[C@@]2(C)[C@H](c3ccoc3)OC(=O)[C@H]3O[C@]321 (some centres undefined) | > 4 mM (inactive) |
| Nc1ccc2c(c1)S(=O)(=O)C=C2 | > 4 mM (inactive) |
| COC(=O)Cc1csc(N)n1 | > 4 mM (inactive) |
| Cn1nc(C(=O)N2CCCC2)c2ccccc2c1=O | > 4 mM (inactive) |
| O=NN1C(=O)c2ccccc2C1=O | > 4 mM (inactive) |
| Cc1cccc(-n2c(N)cc(=O)[nH]c2=S)c1 | > 4 mM (inactive) |

| SMILES | Kd |
| --- | --- |
| O=S(=O)(O)c1cc[n+]([O-])cc1 | > 4 mM (inactive) |
| COC1CC(O[C@H]2CC[C@]3(C=O)C4CC[C@]5(C)C(C6=CC(=O)OC6)CC[C@]5(O)C4CC[C@]3(O)C2)OC(C)C1O (some centres undefined) | > 4 mM (inactive) |
| Cc1cccc(CSc2nncc(=O)[nH]2)c1 | > 4 mM (inactive) |
| O=C(Nc1ccc2c(c1)CCC2)c1cnccn1 | > 4 mM (inactive) |
| CN1CCC(N(C)Cc2cccnc2)CC1 | > 4 mM (inactive) |
| Cn1cc(Cl)c(C(=O)NC2CCCC2)n1 | > 4 mM (inactive) |
| COc1ccc2c3c1O[C@H]1C[C@@H](O)C=C[C@@]31CCN(C)C2 | > 4 mM (inactive) |
| NC1=NC(=O)CC(C(=O)Nc2ccccc2)S1 (centres undefined) | > 4 mM (inactive) |
| Nc1ccc(Oc2ccccc2)nc1 | > 4 mM (inactive) |
| Nc1ccccc1C(=O)N1CCOCC1 | > 4 mM (inactive) |
| CC(=O)O[C@H]1C[C@@H](OC(C)=O)C(C)(C)C2C[C@@H](OC(C)=O)[C@]3(C)C(CC[C@@]4(C)[C@H](c5ccoc5)C(=O)[C@H]5O[C@]543)[C@]21C (some centres undefined) | > 4 mM (inactive) |
| CC1CCN(C(=S)c2ccccc2O)CC1 | > 4 mM (inactive) |
| CN1C(=O)C2CC=C(Cl)CC2C1=O (centres undefined) | > 4 mM (inactive) |
| O=C(O)c1ccc(CN2CCCCC2)o1 | > 4 mM (inactive) |
| NC1=NC(=O)/C(=C\c2ccco2)S1 | > 4 mM (inactive) |
| OCC1=Cc2ccccc2OC1 | > 4 mM (inactive) |
| S=c1nc2c(n[nH]1)[nH]c1ccccc12 | > 4 mM (inactive) |
| Nc1c(F)c(F)nc(F)c1F | > 4 mM (inactive) |
| CC(CCC(=O)O)[C@H]1CCC2C3C[C@H](O)[C@@H]4C[C@H](O)CC[C@]4(C)C3CC[C@@]21C (some centres undefined) | > 4 mM (inactive) |
| O=c1[nH]c2sc3c(c2c2nncn12)CCCC3 | > 4 mM (inactive) |
| O=C1NC(=Nc2ccccc2Cl)SC1(CO)CO | > 4 mM (inactive) |
| COc1cc([C@@H]2c3cc4c(cc3[C@H](O)[C@H]3COC(=O)[C@@H]23)OCO4)cc(OC)c1OC | > 4 mM (inactive) |
| C=CC(C1=CC(=O)C(OC)=CC1=O)c1ccc(O)cc1 (centres undefined) | > 4 mM (inactive) |
| CNC(=S)Nc1ccc(OC)cc1C | > 4 mM (inactive) |

| SMILES | Kd |
| --- | --- |
| CC(=O)O[C@@H]1CC2C(C)(C)C=CC(=O)[C@]2(C)C2CC[C@@]3(C)[C@H](c4ccoc4)OC(=O)C4OC43[C@@]21C (some centres undefined) | > 4 mM (inactive) |
| O=c1c(-c2cc(O)c(O)c(O)c2)coc2cc(O)c(O)c(O)c12 | > 4 mM (inactive) |
| CC(=O)N1CC2(C)CN(C(C)=O)CC(C)(C1)C2 | > 4 mM (inactive) |
| OC(CCl)c1ccc(-n2cncn2)cc1 (centres undefined) | > 4 mM (inactive) |
| O=C(O)c1cnc2n(c1=O)CCS2 | > 4 mM (inactive) |
| Nc1c2c3c(sc2nc(=O)n1N)CCCC3 | > 4 mM (inactive) |
| Cc1cc(Cl)ccc1NC(=O)C(N)=O | > 4 mM (inactive) |
| CC(=O)Nc1sc(C)c(C)c1C(N)=O | > 4 mM (inactive) |
| Cn1cnc([N+](=O)[O-])c1Sc1ncnc2nc[nH]c12 | > 4 mM (inactive) |
| Cc1noc(C)c1C(=O)N1CCc2ccccc21 | > 4 mM (inactive) |
| CCOC(=O)c1cnn2ccccc12 | > 4 mM (inactive) |
| OCCN1CCN(C(=S)c2ccc(Cl)cc2)CC1 | > 4 mM (inactive) |
| COC(=O)C[C@@H]1C2(C)C(=O)[C@@H](CC3=C4CC(=O)O[C@@H](c5ccoc5)[C@]4(C)CCC32)[C@H](OC(C)=O)C1(C)C (some centres undefined) | > 4 mM (inactive) |
| CC(=O)NC(NC(C)=O)c1ccccc1 | > 4 mM (inactive) |
| CN1CCN(C2CCSC2)CC1 (centres undefined) | > 4 mM (inactive) |
| c1ccc(Cc2nnc3sc(-c4ccncc4)nn23)cc1 | > 4 mM (inactive) |
| COc1ccc2c(c1)OC/C(=C/c1ccc(OC)c(OC)c1)C2=O | > 4 mM (inactive) |
| CC(=O)c1cccc(NC(=O)Nc2c(C)nn(C)c2C)c1 | > 4 mM (inactive) |
| O=C1c2cccc3cc(S(=O)(=O)O)cc(c23)C(=O)N1O | > 4 mM (inactive) |
| CC1=C(C(N)=O)C(c2cccs2)C(C(N)=O)=C(C)N1 | > 4 mM (inactive) |
| CN(C)/C=N/S(=O)(=O)c1ccccc1 | > 4 mM (inactive) |
| O=C(O)c1ccc(CN2CCOCC2)cc1 | > 4 mM (inactive) |
| Cc1ccc(S(=O)(=O)/N=C2\NC(=O)CS2)cc1 | > 4 mM (inactive) |
| COc1ccc(Cl)cc1NC(=O)C(N)=O | > 4 mM (inactive) |

| SMILES | Kd |
| --- | --- |
| Cc1nnc2sc(-c3ccco3)nn12 | > 4 mM (inactive) |
| Nc1cc(=O)[nH]c(SCC(=O)NC2CCCCC2)n1 | > 4 mM (inactive) |
| Cc1nc2ccccc2c(=O)n1N1C(=O)CCCC1=O | > 4 mM (inactive) |
| O=C(Nc1ncccn1)c1cccc(F)c1 | > 4 mM (inactive) |
| O=C(c1cccnc1Cl)N1CCOCC1 | > 4 mM (inactive) |
| O=C(Nc1ccc(O)cc1)N1CCOCC1 | > 4 mM (inactive) |
| CN=C(c1ccc([N+](=O)[O-])cc1)N(C)C | > 4 mM (inactive) |
| COc1ccc2[nH]cc(CN(C)C)c2c1 | > 4 mM (inactive) |
| Cc1cc(O)cc(=O)o1 | > 4 mM (inactive) |
| O=c1c2c(nc3nc(Cc4ccccc4)[nH]n13)CCC2 | > 4 mM (inactive) |
| Cc1[nH]ccc2c1[nH]c1cc(=O)ccc12 | > 4 mM (inactive) |
| Cc1nc(-c2cnccn2)sc1C(=O)O | > 4 mM (inactive) |
| O=C(Nc1ccon1)c1ccc(Br)o1 | > 4 mM (inactive) |
| Cc1cc(C(=O)Nc2sc(C)c(C)c2C#N)c(C)o1 | > 4 mM (inactive) |
| Cc1n[nH]c(=O)c2ncn(C)c12 | > 4 mM (inactive) |
| CNC(=O)c1ccccc1N | > 4 mM (inactive) |
| NCc1ccc(-c2csnn2)cc1 | > 4 mM (inactive) |
| Cc1cc(-c2ccc(Cl)cc2)n2nc(N)nc2n1 | > 4 mM (inactive) |
| C(=C\c1ccccc1)/C=N/n1cnnc1 | > 4 mM (inactive) |
| S=C(NCc1ccco1)NN1CCOCC1 | > 4 mM (inactive) |
| Cn1nnc2cc(C(=O)N3CCSCC3)ccc21 | > 4 mM (inactive) |
| COc1c(-c2ccccc2)oc2c(OC)cccc2c1=O | > 4 mM (inactive) |
| O=C(Oc1ccc(-c2nnco2)cc1)N1CCCCC1 | > 4 mM (inactive) |
| Cc1nn2c(=O)c(NC(=O)c3ccccc3)cnc2s1 | > 4 mM (inactive) |

| SMILES | Kd |
| --- | --- |
| Cc1ccc(C)c(S(=O)(=O)NCc2cccnc2)c1 | > 4 mM (inactive) |
| CC(=O)Nc1cccs1 | > 4 mM (inactive) |
| COc1ccc(C2CC(=O)c3ccc(OC)cc3O2)cc1 (centres undefined) | > 4 mM (inactive) |
| Nc1ccc2c(c1)OCCO2 | > 4 mM (inactive) |
| CCCS(=O)(=O)N1CCN(c2ccccc2F)CC1 | > 4 mM (inactive) |
| CC1=C(/C=C/C(C)=C/C=C/C(C)=C/C=C/C=C(C)/C=C/C=C(C)/C=C/C(=O)[C@]2(C)C[C@@H](O)CC2(C)C)C(C)(C)C[C@H](O)C1 | > 4 mM (inactive) |
| c1ccc(-c2nsc(N3CCNCC3)n2)cc1 | > 4 mM (inactive) |
| O=C(O)C1CSC(c2ccco2)N1 (centres undefined) | > 4 mM (inactive) |
| O=C1CC(=O)N(Cc2ccco2)C(=S)N1 | > 4 mM (inactive) |
| Cc1ccc(Nc2nnns2)cc1C | > 4 mM (inactive) |
| Cn1c(=O)n(CC(=O)N2CCOCC2)c2ccccc21 | > 4 mM (inactive) |
| COc1cc2[nH]c(=S)n(C)c(=O)c2cc1OC | > 4 mM (inactive) |
| COc1cc2c(cc1OC)-c1cc3ccc(OC)c(OC)c3c[n+]1CC2 | > 4 mM (inactive) |
| Cc1cccc(C(C)C)c1NC(=O)c1cccnc1 | > 4 mM (inactive) |
| COC(=O)c1ccc2nccnc2c1 | > 4 mM (inactive) |
| NC(=O)Cn1cnc(-c2ccc(F)cc2)c1 | > 4 mM (inactive) |
| CCn1c(-c2ccccc2)n[nH]c1=S | > 4 mM (inactive) |
| N#CCSc1nc(-c2ccccc2)cs1 | > 4 mM (inactive) |
| COc1ccc(-c2nc(C)sc2CC(=O)O)cc1 | > 4 mM (inactive) |
| NC(=S)NC1CCS(=O)(=O)C1 (centres undefined) | > 4 mM (inactive) |
| Cc1nn(CC(=O)Nc2ccccc2)c(=O)c2ccccc12 | > 4 mM (inactive) |
| NC(=O)CSc1ccc2nnc(-c3ccccc3)n2n1 | > 4 mM (inactive) |
| NCc1csc2ccccc12 | > 4 mM (inactive) |
